Where two headings read alike, the source gives them in different places.
Columns and labels:
MDA-MB-231 breast tumors [1] = experiment: Subcutaneous in vivo breast cancer xenograft study, tumor growth; set-up: species or system mice; conditions: i.p. 5 consecutive days, Pd2Spm 5 mg/kg/day, cisplatin 2 mg/kg/day; for tumor growth reduction (versus the vehicle group): end of experiment (day 39 post-implantation); for average tumor volumes compared to vehicle-treated control mice: p < 0.05
Procedure: Female CBA nude (N:NIH(S)II-nu/nu) mice (6–7 weeks old, 21 animals in total) with combined immunodeficiency were purchased from i3S Animal Facility (Porto, Portugal). Animals were acclimatized at ICBAS-UP Rodent Animal House Facility (Porto, Portugal) at least one week prior to the experiments, were randomly distributed into groups of three per individually ventilated cage and were housed under controlled specific-pathogen-free (SPF) environmental conditions (temperature 22.5 ± 1.5 °C; relative humidity 50 ± 10%; 12 h light/dark cycle) with ad libitum access to water and standard pellet food (4RF21, Mucedola, Italy). Environmental enrichment included corncob bedding, paper roll tube and one large sheet of tissue paper for nesting. Animals were monitored daily for health status and welfare.

[2] = system: chicken embryo chorioallantoic membrane (CAM); experiment: In vivo CAM assay (neovascularization); conditions: for CAM early steps of angiogenesis: number of nodes, junctions and segments / CAM later steps of angiogenesis: total length, total branching length and total segment length: 2 to 8 µM
Procedure: The chicken embryo chorioallantoic membrane (CAM) assay was used to study the effect of tested drugs on neovascularization, as described elsewhere. Briefly, fertilized chicken eggs were incubated at 37.5 °C in a humidified atmosphere with agitation. After 3 days of incubation, 2.5 mL of albumen was removed to detach developing CAM from the shell. A window in the eggshell was cut off to expose the embryo, and then, the eggshell was sealed with paraffin. Incubation of fertilized eggs continued until day 9, when the windows were unsealed and four paper disks previously sterilized and pre-treated with hydrocortisone ([…] to avoid inflammatory responses) were placed in direct contact with CAM in each egg (3 PBS-soaked disks and 1 VEGF-soaked (10 ng/mL) disk), and windows were re-sealed with paraffin. […] The remaining two disks were used as negative/vehicle (treated with PBS) and positive (treated with VEGF) controls. The eggs were further incubated two more days, and at […], the disks bound to the CAM were removed, placed in PBS and imaged using a contrast-phase microscope (Motic® AE200 inverted microscope, Spectra Services, VWR International) (with a 4X magnification) coupled to a Moticam 5 digital camera. Images were analyzed using the Angiogenesis Analyzer for Fiji.

MDA-MB-231 breast tumors [3] = experiment: Histology, Ki-67 immunohistochemistry and TUNEL assay of xenograft tumors; type: in vivo, mice; conditions: Pd2Spm 5 mg/kg/day, cisplatin 2 mg/kg/day, versus vehicle
Procedure: For the immunohistochemical study, tissue sections were dewaxed and rehydrated. Slides were submitted to […] by immersion in 10% retrieval solution (Dako) and kept in a water bath at 100 °C for 20 min. After blocking of non-specific staining, slides were incubated with primary antibody for Ki-67 (1:50 dilution, clone MIB-1, Dako) overnight at 4 °C. Slides were then stained with Novolink Polymer Detection Systems (Leica Biosystems Inc., Buffalo Grove, IL, USA) following manufacturer’s instructions, counterstained with hematoxylin and permanently mounted. The nuclear Ki-67 staining was analyzed using Fiji’s high-throughput automatic quantitation with Andy’s Algorithm pipeline, as described elsewhere. The immunoreactivity was evaluated, counting at least 600 nuclei/field from 5 representative fields of the lesion at high magnification, avoiding necrotic areas. The ratio of Ki-67 positive nuclei per all counted nuclei was expressed as a percentage (Ki-67 proliferation index).
The paraffin-embedded tumor sections were deparaffinized, rehydrated through a graded series of ethanol and double distilled water and then stained with In Situ Cell Death Detection Kit (Roche Diagnostics GmbH, Mannheim, Germany) as per manufacturer’s instructions. Apoptosis was quantified at single-cell level by counting the number of cells positive for terminal deoxynucleotidyl transferase (TdT) dUTP nick-end labeling (TUNEL-positive cells). Briefly, tumor sections were incubated with 20 µg/mL proteinase K solution (in 10 mM Tris/HCl, pH 7.4–8) for 30 min at 37 °C. Slides were washed and stained with TUNEL reaction mixture (mixture of terminal deoxynucleotidyl transferase with labeled nucleotides) for 60 min at 37 °C in the dark followed by three washes. Slides were mounted with […] Antifade Mounting Medium with DAPI, and coverslips were sealed. At least twenty nonoverlapping high-power microscope fields of each tumor section were captured while avoiding areas with central necrosis. Fluorescence images were acquired using the LionHeart automated microscope at Ex: 520–560 nm and Em: 570–620 nm.

[4] = Tolerability in tumor-bearing mice (body weight, behavior, relative organ weight, histopathology, deaths)
MCF-12A cells = experiment: Cell proliferation assay (label-free live cell counting), MCF-12A; type: cell-based, human; conditions: for logIC50 ± SEM: n = 4
[5] = system: VEGF secretion by MDA-MB-231 cells; experiment: VEGF production, Human VEGF Quantikine ELISA of cell culture medium; type: cell-based; conditions: MDA-MB-231, 5–20 µM, 12 h
Procedure: MDA-MB-231 cells were seeded in 96-well microplates at the cell density 1.5 × 10^4 cells/cm^2 (final volume 200 µL/well) and left 24 h to attach. […] VEGF concentration in cell culture medium was determined in undiluted samples in duplicate using the Human VEGF Quantikine ELISA Kit (R&D Systems Inc., Minneapolis, MN, USA) according to the manufacturer’s protocol. In brief, 200 μL of conditioned media was added to a 96-well microplate pre-coated with monoclonal antibody for human VEGF and the plate was incubated for 2 h. After washing with wash buffer, enzyme-linked polyclonal antibody specific for human VEGF was added, followed by incubation for 2 h. The plate was washed to remove unbound antibody-enzyme reagent, substrate solution was added and incubated for 30 min and the reaction was terminated by the addition of the stop solution, producing a yellow solution. The optical density at 450 nm with wavelength correction at 540 nm was measured using a Synergy HT microplate reader (BioTek, Winooski, VT, USA). The concentration of VEGF was interpolated from the standard curve (15.6–1000 pg/mL) prepared in parallel.

[6] = Pd2Spm 5 mg/kg/day, cisplatin 2 mg/kg/day
[7] = tumor-bearing mice, i.p. 5 days, Pd2Spm 5 mg/kg/day, cisplatin 2 mg/kg/day
[8] = 48 h of incubation, n = 4, read-out: IC50 in µM [95% CI]
[9] = 72 h of incubation, n = 4, read-out: IC50 in µM [95% CI]
[10] = organ weight/body weight × 100%, mean ± SEM, n = 7, cisplatin 2 mg/kg/day, Pd2Spm 5 mg/kg/day

N.N.[Cl][Pt][Cl] [Cisplatin, cis-dichlorodiammine platinum(II), reference compound]
tumor growth reduction (versus the vehicle group) (MDA-MB-231 breast tumors [1]): 56.6%
average tumor volumes compared to vehicle-treated control mice (MDA-MB-231 breast tumors [1]): significantly lower
CAM early steps of angiogenesis: number of nodes, junctions and segments [2]: decrease, in a dose-dependent manner
CAM later steps of angiogenesis: total length, total branching length and total segment length [2]: reduced, in a dose-dependent manner
TUNEL-positive cells in tumors (DNA damage) (MDA-MB-231 breast tumors [3]): significant increase
mitotic count in tumors (MDA-MB-231 breast tumors [3]): mitotic count of vehicle-treated animals was significantly increased compared to cisplatin- and Pd2Spm-treated groups
liver histopathology (glycogen accumulation, PAS) [4, 6]: swollen, pale and finely vacuolated cytoplasm due to intracellular accumulation of glycogen
kidney histopathology (perirenal adipose tissue) ([4]; compared to vehicle-treated animals): decreased perirenal adipose tissue
body weight [4, 7]: slower body weight recovery
logIC50 ± SEM (MCF-12A cells; 24 h of incubation): −5.510 ± 0.062
IC50 (MCF-12A cells; 24 h of incubation, n = 4, read-out: IC50 in µM [95% CI]): 3.1 µM
logIC50 ± SEM (MCF-12A cells; 48 h of incubation): −5.988 ± 0.029
IC50 (MCF-12A cells; [8]): 1 µM
logIC50 ± SEM (MCF-12A cells; 72 h of incubation): −5.981 ± 0.026
IC50 (MCF-12A cells; [9]): 1 µM
VEGF secretion in cell culture medium [5]: inhibited VEGF secretion in cell culture medium in a dose-dependent manner

NCCCNCCCCNCCCN.[Cl][Pd][Cl].[Cl][Pd][Cl] [Pd2Spm, dinuclear palladium(II)-spermine chelate]
tumor growth reduction (versus the vehicle group) (MDA-MB-231 breast tumors [1]): 43.3%
average tumor volumes compared to vehicle-treated control mice (MDA-MB-231 breast tumors [1]): significantly lower
angiogenesis in CAM at single concentration ([2]; 8 µM (4.46 µg/mL)): significantly inhibited angiogenesis
CAM early steps of angiogenesis: number of nodes, junctions and segments [2]: decrease, in a dose-dependent manner
CAM later steps of angiogenesis: total length, total branching length and total segment length [2]: reduced, in a dose-dependent manner
Ki-67 index of tumors (MDA-MB-231 breast tumors [3]): significantly decreased
TUNEL-positive cells in tumors (DNA damage) (MDA-MB-231 breast tumors [3]): significant increase
mitotic count in tumors (MDA-MB-231 breast tumors [3]): mitotic count of vehicle-treated animals was significantly increased compared to cisplatin- and Pd2Spm-treated groups
liver histopathology (glycogen accumulation, PAS) [4, 6]: not observed
deaths during treatment ([4]; cumulative dose of 25 mg/kg (5 mg/kg/day for 5 consecutive days)): no associated deaths
Relative Organ Weight (%), Brain [4, 10]: 1.79 ± 0.16%
Relative Organ Weight (%), Heart [4, 10]: 0.53 ± 0.06%
Relative Organ Weight (%), Kidneys [4, 10]: 1.43 ± 0.10%
Relative Organ Weight (%), Liver [4, 10]: 6.14 ± 0.29%
Relative Organ Weight (%), Lungs [4, 10]: 0.77 ± 0.08%
Relative Organ Weight (%), Spleen [4, 10]: 0.32 ± 0.11%
body weight [4, 7]: did not show changes in body weight
signs of general toxicity [4, 7]: no such adverse effects were observed
growth inhibition at the highest concentration (MCF-12A cells; 100 µM, compared to same dosage of cisplatin): did not produce a maximum growth inhibition
IC50 (MCF-12A cells; 24-72 h, read-out: IC50 values (range over incubation times)): 89.5 to 229 µM
logIC50 ± SEM (MCF-12A cells; 48 h of incubation): −4.039 ± 0.023
IC50 (MCF-12A cells; [8]): 91.5 µM
logIC50 ± SEM (MCF-12A cells; 72 h of incubation): −4.048 ± 0.068
IC50 (MCF-12A cells; [9]): 89.5 µM
VEGF secretion in cell culture medium [5]: inhibited VEGF secretion in cell culture medium in a dose-dependent manner

— article PMC8869242 (Biomedicines, 2022)
